Laboratory results published in PMC9919490, “Synthesis and Biological Evaluation of Novel Dispiro-Indolinones with Anticancer Activity” (Molecules, 2023).

Legend:
[1] = Acute toxicity; type: in vivo; conditions: for body weight (M ± m): i.p. 2500 mg/kg
Protocol: Acute toxicity tests were performed on mature outbred mice (male and female). The design of the experiment is specified in Table S3 (Supplementary Materials).
To select the doses, the pilot experiments were carried out on a minimum number of animals.
The surviving animals were subjected to euthanasia and necropsy on the 29th day of the experiment to study the effects of the test agent on their internal organs.
Outbred mice (males and females) were used in the experiments. Intraperitoneal injections were applied in the posterior third of the abdomen, slightly departing from the midline. The mice were injected with 1 mL of the solution. […] The solution was prepared ex tempore. Doses were calculated for each animal separately, according to body weight data.
The group arithmetic mean (M) and standard error of the mean (m) were calculated. Statistical significance of the differences was assessed using Student’s t-test. The differences between these groups were considered significant at p < 0.05.

[2] = test system: PC3 cells; assay: MTT cytotoxicity assay, PC3 (p53 neg); type: cell-based; conditions: Homo sapiens, PC-3, 48 h

Q: Which results are given for `CCOc1ccc(N2C(=O)C3(NC2=S)C(c2ccc(Cl)cc2)CN(C)C32C(=O)Nc3ccc(Br)cc32)cc1` (stereo not shown) [Compound 29]?
A: autopsy finding ([1]; 29th day after exposure, intraperitoneal 2500 mg/kg): increase in the liver, with signs of dystrophy; dynamics of body weight ([1]; intraperitoneal 2500 mg/kg, vs control mice): did not show differences from the control mice; clinical picture of intoxication ([1]; intraperitoneal, 2500 mg/kg): depressed state, a decrease in motor activity, and the release of porphyrin; time after which symptoms of intoxication disappeared ([1]; intraperitoneal, 2500 mg/kg): 30 to 60 min; deaths ([1]; intraperitoneal, 2500 mg/kg, observation 28 days): no deaths were registered; body weight (M ± m) ([1]; ♀, day 0): 23,8±0,54 grams; body weight (M ± m) ([1]; ♀, day 7): 24,0±1,25 grams; body weight (M ± m) ([1]; ♀, day 14): 24,5±0,91 grams; body weight (M ± m) ([1]; ♀, day 21): 24,0±1,13 grams; body weight (M ± m) ([1]; ♀, day 29): 25,0±1,18 grams; body weight (M ± m) ([1]; ♂, day 0): 24,6±0,53 grams; body weight (M ± m) ([1]; ♂, day 7): 25,2±0,49 grams; body weight (M ± m) ([1]; ♂, day 14): 26,9±0,58 grams; body weight (M ± m) ([1]; ♂, day 21): 26,0±0,63 grams; body weight (M ± m) ([1]; ♂, day 29): 24,1±0,32 grams; IC50 [2]: 9.8 ± 3.7 µM
